Laboratory results from patent US20130096159A1, “INHIBITORS OF HUMAN 12-LIPOXYGENASE” (The United States of America, as represented the Secretary …, priority 2010, published 2013).

What was measured:
Human islets = assay: gene expression in cytokine-stimulated human islets, Taqman real time PCR; assay type: cell-based; settings: TNF-α
Description: Human islets were incubated for 22 hours following stimulation with the inflammatory cytokines IFN-γ, TNF-α, and IL-1-β alone or in the presence of compound 1 or compound 9. Control islets were incubated for 22 hours in the absence of inflammatory cytokines or compounds. Following the incubation, gene expression for 12-LO, 15-LO, 5-LO, IL-12p40, and IFN-γ were determined using Taqman real time PCR.

human 12-lipoxygenase = biological target: T1, human 12-lipoxygenase (Homo sapiens, UniProt P18054); assay: human 12-lipoxygenase inhibition (12hLO) assay, absorbance at 234 nm; assay type: biochemical
T1 sequence (P18054 1-663): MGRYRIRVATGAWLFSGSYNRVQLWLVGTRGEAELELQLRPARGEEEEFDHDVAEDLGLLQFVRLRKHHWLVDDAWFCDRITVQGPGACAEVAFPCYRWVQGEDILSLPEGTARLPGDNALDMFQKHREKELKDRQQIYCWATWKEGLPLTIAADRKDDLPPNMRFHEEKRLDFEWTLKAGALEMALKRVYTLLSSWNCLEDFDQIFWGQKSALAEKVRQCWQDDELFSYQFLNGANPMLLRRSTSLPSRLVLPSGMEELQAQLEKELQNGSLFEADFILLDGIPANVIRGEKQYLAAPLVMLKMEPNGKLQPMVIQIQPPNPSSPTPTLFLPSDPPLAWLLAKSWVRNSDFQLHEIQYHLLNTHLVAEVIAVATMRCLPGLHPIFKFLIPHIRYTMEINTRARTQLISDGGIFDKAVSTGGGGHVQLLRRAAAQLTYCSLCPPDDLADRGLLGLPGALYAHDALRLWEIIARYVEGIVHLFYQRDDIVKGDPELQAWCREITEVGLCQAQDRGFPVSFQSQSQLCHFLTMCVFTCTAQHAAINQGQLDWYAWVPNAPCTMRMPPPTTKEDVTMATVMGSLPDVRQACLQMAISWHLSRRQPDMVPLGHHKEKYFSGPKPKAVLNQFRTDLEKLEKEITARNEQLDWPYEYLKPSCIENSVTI

[1] = relative to control islets, IFN-γ, IL-1-β stimulation, 22 hours

## CCC(=O)NC(c1cccs1)c1cc([N+](=O)[O-])c2cccnc2c1O (stereo not drawn) [Compound 1, N-((8-hydroxy-5-nitroquinolin-7-yl)(thiophen-2-yl)methyl)propionamide]
Human islets; induced by IFN-γ, IL-1-β
  reduction in IFN-γ expression: 4 fold
  reduction in IL-12p40 mRNA expression: 40 fold
Human islets; [1]
  Change in Gene Expression 5-LO: 1
  Change in Gene Expression 12-LO: 13
  Change in Gene Expression 15-LO: 1
  Change in Gene Expression IFN-γ: 25
  Change in Gene Expression IL-12p40: 3
Human 12-lipoxygenase
  selectivity for inhibition of human 12-lipoxygenase as compared with human 5-lipoxygenase, 15-lipoxygenase-1 and 15-lipoxygenase-2: exhibited selectivity
Human 12-lipoxygenase; 12hLO Inhibition, Table 1, read-out: IC50 (μM) [± SD μM]
  IC50: 0.8 µM
